Values of other authors as cited in article PMC12525602, “Identification of Selective α-Glucosidase Inhibitors via Virtual Screening with Machine Learning” (Molecules, 2025).

System: α-glucosidase
Details: 300-compound dataset of reported inhibitors and ineffective compounds, Table S4; cited from earlier work

SMILES	activity (label in modeling dataset)
COc1cc(-c2oc3cc(O)cc(O)c3c(=O)c2O[C@@H]2O[C@H](CO)[C@@H](O)[C@H](O)[C@H]2O)ccc1O [compound 1, COC1=C(O)C=CC(C2=C(O[C@H]3[C@H](O)[C@@H](O)[C@H](O)[C@@H](CO)O3)C(C4=C(O)C=C(O)C=C4O2)=O)=C1]	0
Cc1ccc(Nc2nnc(-c3cc4cc(C#N)ccc4[nH]3)s2)cc1 [compound 4, CC(C=C1)=CC=C1NC(S2)=NN=C2C3=CC4=CC(C#N)=CC=C4N3]	0

Same assay, conditions: Table S5 modeling dataset; activity label 1 = active, 0 = inactive; cited from earlier work

SMILES	activity
O=C(NNS(=O)(=O)c1ccc([N+](=O)[O-])cc1)c1cc2cc(F)ccc2[nH]1 [compound 109]	0
CC1CCN(c2ccc(/C=N/Nc3nc(-c4ccccc4)cs3)cc2)CC1 [compound 112]	0
c1ccc(CSc2nnc(COc3cccc4cccnc34)o2)cc1 [compound 116]	0
N#Cc1c(-c2ccc(Cl)cc2)cc(-c2cccc([N+](=O)[O-])c2)c(C#N)c1N [compound 120]	0
COC(=O)/C=C/c1ccc(O)c(OC)c1 [compound 127]	0
O=C(c1ccccc1)c1ccc2nc(-c3ccc(Cl)cc3)[nH]c2c1 [compound 114]	0
O=C(c1ccccc1)c1ccc2nc(-c3ccc(O)cc3)[nH]c2c1 [compound 135]	0
O=c1c(O[C@@H]2OC[C@H](O)[C@H](O)[C@H]2O)c(-c2ccc(O)c(O)c2)oc2cc(O)cc(O)c12 [compound 104]	0
Brc1cccc(CSc2nnc(COc3cccc4cccnc34)o2)c1 [compound 99]	0
N#Cc1ccc2[nH]c(-c3nnc(Nc4ccccc4Cl)s3)cc2c1 [compound 125]	0
Clc1ccc(CSc2nnc(COc3cccc4cccnc34)o2)cc1 [compound 121]	0
COc1ccc(S(=O)(=O)NNC(=O)c2cc3cc(F)ccc3[nH]2)cc1 [compound 105]	0

Same assay, conditions: activity label in the 300-compound modeling dataset (Table S5); 1 = active, 0 = inactive; cited from earlier work

SMILES	activity
Cc1ccc(-c2csc(N/N=C/c3ccc(N4CCC(C)CC4)cc3)n2)cc1 [compound 186]	1
COc1cc(/C=N/N=C2\C(=O)Nc3ccccc32)ccc1OCc1cn(Cc2ccccc2)nn1 [compound 224]	1
COc1cccc(C(=O)C2C(O)c3ccccc3S(=O)(=O)N2CC(=O)Nc2cccc(C)c2)c1 (stereo not drawn) [compound 196]	1
Oc1cc(O)cc(-c2cc3cccc(Cl)c3o2)c1 [compound 212]	1
CC(C)(C)c1ccc(-c2csc(N/N=C/c3ccccc3OCc3cc4ccccc4oc3=O)n2)cc1 [compound 215]	1
COc1ccc(Br)cc1-c1nnc(/N=C(/CSc2nnc3c(n2)[nH]c2ccccc23)c2ccc(C)cc2)s1 [compound 189]	1
O=C(COc1c(I)cc(Cl)c2cccnc12)c1ccccc1 [compound 214]	1
COc1ccc(OC)c(/C(CSc2nnc3c(n2)[nH]c2ccccc23)=N\c2nnc(-c3cc(Br)ccc3OC)s2)c1 [compound 198]	1
O=[N+]([O-])c1ccc(-c2nnc(/N=C(/CSc3nnc4c(n3)[nH]c3ccccc34)c3ccc(-c4ccccc4)cc3)s2)cc1 [compound 230]	1

Same assay, conditions: activity label of the 300-compound modeling dataset, Table S5; cited from earlier work

SMILES	activity
O=C1Nc2ccccc2/C1=N/N=C/c1ccc(OCc2cn(Cc3ccc(F)cc3)nn2)cc1 [compound 271]	1
O=C(/C=C/c1ccc(O)c(F)c1)c1cccc2[nH]c(=O)oc12 [compound 246]	1
Brc1cccc(CNc2cccc(-c3nc4ccccc4[nH]3)c2)n1 [compound 265]	1
COc1cccc(CNc2cccc(-c3nc4ccccc4[nH]3)c2)n1 [compound 270]	1
Brc1ccc(CNc2cccc(-c3nc4ccccc4[nH]3)c2)cn1 [compound 254]	1
O=C1CC(/C=N/Nc2cccc(Br)c2)Oc2ccccc21 (stereo not drawn) [compound 233]	1
Cc1ccc(-c2cnc3ccccc3n2)cc1 [compound 257]	1
O=c1c(O)c(-c2ccc(O)cc2)oc2cc(O)cc(O)c12 [compound 244]	1
O=C(/C=C/c1cc(F)c(O)c(F)c1)c1cccc2[nH]c(=O)oc12 [compound 245]	1
O=C(COc1c(I)cc(Cl)c2cccnc12)c1ccc(Cl)cc1Cl [compound 276]	1
Oc1cccc(-c2nnc(/N=C(/CSc3nnc4c(n3)[nH]c3ccccc34)c3ccc(-c4ccccc4)cc3)s2)c1 [compound 269]	1
N#Cc1cccc(N/N=C/C2CC(=O)c3ccccc3O2)c1 (stereo not drawn) [compound 251]	1
COc1ccc(/C(CSc2nnc3c(n2)[nH]c2ccccc23)=N\c2nnc(-c3ccc(Cl)c(Cl)c3)s2)cc1 [compound 249]	1
O=C(COc1c(I)cc(Cl)c2cccnc12)c1ccc(-c2ccccc2)cc1 [compound 242]	1
COC(=O)Cn1c(=O)oc2c(C(=O)/C=C/c3cc(F)c(O)c(F)c3)cccc21 [compound 264]	1

Same assay, conditions: activity label of the modeling dataset (Table S5), α-glucosidase; 1 = active, 0 = inactive; cited from earlier work

SMILES	activity
N#Cc1c(-c2ccc(Cl)cc2)cc(-c2cccc(Cl)c2)c(C#N)c1N [compound 12]	0
Cc1ccc(-c2cc(-c3cccnc3)c(C#N)c(N)c2C#N)cc1 [compound 6]	0
N#Cc1c(-c2cccnc2)cc(-c2ccsc2)c(C#N)c1N [compound 37]	0
N#Cc1ccc2[nH]c(-c3nnc(Nc4ccccc4Br)s3)cc2c1 [compound 11]	0
N#Cc1c(-c2ccc([N+](=O)[O-])cc2)cc(-c2cccc([N+](=O)[O-])c2)c(C#N)c1N [compound 32]	0
N#Cc1c(-c2ccncc2)cc(-c2cccc(Cl)c2)c(C#N)c1N [compound 36]	0
N#Cc1c(-c2ccncc2)cc(-c2ccccn2)c(C#N)c1N [compound 28]	0
COc1ccc(-n2cc(CSc3nnc(COc4cccc5cccnc45)o3)nn2)cc1 [compound 17]	0
Clc1cccc(Cn2cc(CSc3nnc(COc4cccc5cccnc45)o3)nn2)c1 [compound 16]	0
COc1cccc(Nc2nnc(-c3cc4cc(C#N)ccc4[nH]3)s2)c1 [compound 43]	0
COc1cc(-c2oc3cc(O)cc(O)c3c(=O)c2O[C@@H]2O[C@H](CO)[C@@H](O)[C@H](O)[C@H]2O)ccc1O [compound 1, COC1=C(O)C=CC(C2=C(O[C@H]3[C@H](O)[C@@H](O)[C@H](O)[C@@H](CO)O3)C(C4=C(O)C=C(O)C=C4O2)=O)=C1]	0
Cc1ccc(Nc2nnc(-c3cc4cc(C#N)ccc4[nH]3)s2)cc1 [compound 4, CC(C=C1)=CC=C1NC(S2)=NN=C2C3=CC4=CC(C#N)=CC=C4N3]	0

Same assay, conditions: activity label of the modeling dataset, Table S5 (1 = active, 0 = inactive); cited from earlier work

SMILES	activity
Fc1ccc(Cn2cc(CSc3nnc(COc4cccc5cccnc45)o3)nn2)cc1 [compound 69]	0
N#Cc1c(-c2ccc([N+](=O)[O-])cc2)cc(-c2cccc(Br)c2)c(C#N)c1N [compound 48]	0
Cc1ccc(-n2cc(CSc3nnc(COc4cccc5cccnc45)o3)nn2)cc1 [compound 59]	0
Clc1cccc(Cl)c1-n1cc(CSc2nnc(COc3cccc4cccnc34)o2)nn1 [compound 71]	0
CCCCCSc1nnc(COc2cccc3cccnc23)o1 [compound 55]	0
CC1CCN(c2ccc(/C=N/Nc3nc(-c4ccc(Cl)cc4)cs3)cc2)CC1 [compound 83]	0
Fc1cccc(CSc2nnc(COc3cccc4cccnc34)o2)c1 [compound 47]	0
CC1CCCN(c2ccc(/C=N/Nc3nc(-c4ccc(Br)cc4)cs3)cc2)C1 (stereo not drawn) [compound 70]	0
CC1CCCN(c2ccc(/C=N/Nc3nc(-c4ccc(F)cc4)cs3)cc2)C1 (stereo not drawn) [compound 87]	0
CCCCCCSc1nnc(COc2cccc3cccnc23)o1 [compound 51]	0
Clc1ccc(-n2cc(CSc3nnc(COc4cccc5cccnc45)o3)nn2)c(Cl)c1 [compound 49]	0
O=[N+]([O-])c1ccc(Cn2cc(CSc3nnc(COc4cccc5cccnc45)o3)nn2)cc1 [compound 56]	0

Same assay, conditions: activity label of the modeling dataset, Table S5; cited from earlier work

SMILES	activity
Cc1ccccc1Cn1cc(COc2ccc(/C=N/N=C3\C(=O)N(c4ccc(Br)cc4)c4ccccc43)cc2)nn1 [compound 146]	0
O=C(O)CCCCCCCCCCCCCCCO [compound 160]	1
CCCCCCCCCCCCCC(=O)O [compound 141]	0
CC1CCCN(c2ccc(/C=N/Nc3nc(-c4ccc(O)cc4)cs3)cc2)C1 (stereo not drawn) [compound 140]	0
CC(C)=CCc1c(O)cc2c(c1O)C(=O)CC(c1ccc(O)cc1)O2 (stereo not drawn) [compound 169]	1
COc1cc(O)c(CC=C(C)C)c2c1C(=O)CC(c1ccc(O)cc1)O2 (stereo not drawn) [compound 179]	1
COc1cccc(C(=O)C2C(O)c3ccccc3S(=O)(=O)N2CC(=O)Nc2ccccc2Cl)c1 (stereo not drawn) [compound 168]	1
O=C(CCc1ccc(O)cc1)c1c(O)cc(O)cc1O [compound 176]	1
O=C1/C(=N\N=C\c2ccc(OCc3cn(Cc4ccccc4)nn3)cc2)c2ccccc2N1c1ccc(Br)cc1 [compound 145]	0
O=C(NNS(=O)(=O)c1ccc(C(F)(F)F)cc1)c1cc2cc(F)ccc2[nH]1 [compound 150]	1
N#Cc1ccc2[nH]c(-c3nnc(Nc4ccccc4F)s3)cc2c1 [compound 184]	1
COc1cc(/C=C/C(=O)O)ccc1O [compound 183]	1
O=[N+]([O-])c1ccccc1-c1nnc(/N=C(/CSc2nnc3c(n2)[nH]c2ccccc23)c2ccc(Br)cc2Br)s1 [compound 153]	1

Same assay, conditions: activity label of the modeling dataset, sheet Table S5; 1 = active, 0 = inactive; cited from earlier work

SMILES	activity
Clc1ccc(-c2cnc3ccccc3n2)c(Cl)c1 [compound 283]	1
CC(C)=CCn1c(=O)oc2c(C(=O)/C=C/c3cc(F)c(O)c(F)c3)cccc21 [compound 280]	1
O=c1c(O)c(-c2ccc(O)c(O)c2)oc2cc(O)cc(O)c12 [compound 289]	1
CCC/C=N/N=C(/C)c1ccc([N+](=O)[O-])cc1 [compound 285]	1
Clc1cccc(-c2cnc3ccccc3n2)c1 [compound 290]	1
Cc1cc2ncc(-c3ccccc3)nc2cc1C [compound 294]	1
